Reference: patent US4427671A, “Steroids esterified in position 17 and thioesterified in position 21, a process for preparing them and their use as medicaments” (priority 1981, dated 1984)

Experiments:
Assay type in all cases: in vivo, male Sprague-Dawley I.O.P.S. rats
thymus = assay: Systemic activity after local administration: effect on the weight of the thymus
Procedure: (§1) The pharmacological activity of the products described in the invention was tested in the rat using a technique similar to that described by C. A. Winter and C. C. Porter (J. Am. Pharm. Ass. 1957, 46, 9, pages 515-519).
(§2) The principle of the test consists in implanting a pellet of cotton wool in the dorsal subcutaneous tissue of the animal. The corticoids to be studied are added to the pellet so that the following tests can be carried out:
(§3) (2) Determination of the systemic activity of the products after local administration
(§4) Local application of the corticoids may result, inter alia, in:
(a) a reduction in the defence systems of the organism, the most notable sign of which is a reduction in the weight of the animals' thymuses.
(§5) The animals are divided into random homogeneous groups of 10 male Sprague-Dawley I.O.P.S. rats with a body weight of between 100 and 120 grams.
(§6) The pellets to be implanted weigh from 35 to 40 mg and are prepared from balls of dental cotton wool. Before being inserted, each pellet is weighed and impregnated with the precise quantity of the product which is to be studied, dissolved in 0.2 ml of chloroform. The chloroform is eliminated by evaporation over a period of 24 hours at ambient temperature.
(§7) Before implantation, each pellet is impregnated with a solution of antibiotics:
(§8) The animals are anaesthetised with ether, and then two pellets are implanted in each animal in the dorsal subcutaneous tissue, on each side of the median line:
(§9) on the left, the pellet containing the product to be tested (treated animal) or the carrier only (control animal);
(§10) on the right, the pellet containing the carrier only.
(§11) The animals are given normal food and are sacrificed six days after the pellets have been implanted.
(2) Determination of the systemic effect
The thymuses are taken from the same animals and weighed. Using the same type of calculation, an ED 50 is determined, which corresponds to the dosage of product resulting in a 50% decrease in weight of the thymuses, compared with the control animals.

granuloma = assay: Local anti-inflammatory activity: inhibition of granuloma formation around implanted cotton wool pellet; conditions: Table 1; for R 1 (relative local anti-inflammatory activity compared with betamethasone 17,21-dipropionate): D.P.B. = 1, calculated from ED50; for ED50 (local anti-inflammatory activity, 50% inhibition in granuloma weight): rat, cotton pellet granuloma, six days after implantation
Procedure: A. Winter and C. C. Porter (J. Am. Pharm. Ass. 1957, 46, 9, pages 515-519).
as §2
(1) Determination of the local anti-inflammatory activity
The presence of products within the pellet may inhibit or prevent the formation of a granuloma.
as §5, §6, §7
Streptomycin 0.1 gram/ml.
as §8, §9, §10, §11
(1) Local anti-inflammatory activity
The pellets surrounded by granulomatous tissue are carefully removed and weighed, and then dried until a constant weight is obtained.
The relative activity of the test products compared with betamethasone 17,21-dipropionate is calculated according to the following equation: [formula]

[1] = Systemic activity after local administration: effect on weight gain
Procedure: as §1, §2, §3, §4
(b) Disruption of the protein metabolism which causes tissue fusion, resulting in an inhibition of the weight increase in animals.
as §5, §6, §7, §8, §9, §10, §11
(b) Effect on weight gain
The weight gain over six days is determined on the animals before they are sacrificed.
The activity of the products was expressed as the percentage inhibition in the weight gain of the treated animals compared with the weight gain in the control animals.
The ED 30 which corresponds to a 30% inhibition in the weight gain was determined.

[2] = D.P.B. = 1, calculated from ED50, Table 2
[3] = rat, local application, six days, Table 2
[4] = D.P.B. = 1, calculated from ED30, Table 3
[5] = rat, local application, weight gain over six days, Table 3

Row | SMILES | R 2 (relative effect on thymus weight compared with D.P.B.) (thymus; [2]) | ED50 (50% decrease in weight of the thymuses) (thymus; [3]) | R 1 (relative local anti-inflammatory activity compared with betamethasone 17,21-dipropionate) (granuloma) | ED50 (local anti-inflammatory activity, 50% inhibition in granuloma weight) (granuloma) | R 3 (relative activity on weight gain compared with D.P.B.) [1, 4] | ED30 (30% inhibition in the weight gain) [1, 5] | ED50 (50% decrease in weight of the thymuses) (thymus; rat, in vivo) | R 2 (relative effect on thymus weight compared with D.P.B.) (thymus; rat, in vivo, 8640 min) | ED30 (30% inhibition in the weight gain) ([1]; rat, in vivo, 8640 min) | R 3 (relative activity on weight gain compared with D.P.B.) ([1]; rat, in vivo, 8640 min) | ED50 (50% decrease in weight of the thymuses) (thymus; rat, in vivo, 8640 min)
1 | CCC(=O)OCC(=O)[C@@]1(OC(=O)CC)[C@@H](C)C[C@H]2[C@@H]3CCC4=CC(=O)C=C[C@]4(C)[C@@]3(Cl)[C@@H](O)C[C@@]21C [Beclomethasone dipropionate, beclomethasone 17,21-dipropionate, reference compound] | 0.27 | 3.1 mg/pellet | < 0.2 | > 5 mg/pellet | 0.16 | 5 mg/pellet | – | – | – | – | –
2 | CCC(=O)OCC(=O)C1(OC(=O)CC)C(C)CC2C3CCC4=CC(=O)C=CC4(C)C3(F)C(O)CC21C (stereo not drawn) [D.P.B., betamethasone 17,21-dipropionate, reference compound] | 1 | 0,86 mg/pellet | 1 | 1.610 mg/pellet | 1 | > 0.8 mg/pellet | – | – | – | – | –
3 | CCCCC(=O)O[C@]1(C(=O)CSC(=O)CCCC)CC[C@H]2[C@@H]3CCC4=CC(=O)CC[C@]4(C)[C@H]3[C@@H](O)C[C@@]21C [Ex. 1, 11β-hydroxy-pregn-4-ene-3,20-dione (or hydrocortisone) 17-valerate, 21-thiovalerate] | – | – | > 8 | < 0.200 mg/pellet | – | – | zero to 3.2 | < 0.27 | > 3.2 mg/pellet | < 0.25 | –
4 | CCCCC(=O)O[C@]1(C(=O)CSC(=O)C(C)(C)C)CC[C@H]2[C@@H]3CCC4=CC(=O)CC[C@]4(C)[C@H]3[C@@H](O)C[C@@]21C [Ex. 2, 11β-hydroxy-pregn-4-ene-3,20-dione (or hydrocortisone) 17-valerate, 21-thiopivalate] | – | – | 0.75 | 2.140 mg/pellet | – | – | zero to 3.4 | < 0.25 | > 3.4 mg/pellet | < 0.24 | –
5 | CCCC(=O)O[C@]1(C(=O)CSC(C)=O)CC[C@H]2[C@@H]3CCC4=CC(=O)C=C[C@]4(C)[C@H]3C(=O)C[C@@]21C [Ex. 3, Pregna-1,4-diene-3,11,20-trione (or prednisone) 17-butyrate, 21-thioacetate] | – | – | 2.7 | 0.600 mg/pellet | – | – | – | < 0.17 | > 5 mg/pellet | < 0.16 | > 5 mg/pellet
6 | CC(=O)SCC(=O)[C@@]1(OC(=O)c2ccccc2)CC[C@H]2[C@@H]3C[C@H](C)C4=CC(=O)C=C[C@]4(C)[C@H]3[C@@H](O)C[C@@]21C [Ex. 4, 11β-hydroxy-6α-methyl-pregna-1,4-diene-3,20-dione (or 6β-methylprednisolone) 17-benzoate, 21-thioacetate] | – | – | 29 | 0.056 mg/pellet | – | – | – | < 0.17 | > 5 mg/pellet | < 0.16 | > 5 mg/pellet
